“Also recorded” adds a separate entry of the source.
Assays:
β2c = β2c (Homo sapiens, UniProt Q99436); experiment: IC50 against β2c of human constitutive proteasome (Z-VLR-AMC); details: read-out: IC50 2c - VLR (β2c); substrate Z-VLR-AMC
Procedure: (§3) IC50s of all compounds against β5i and β5c (Table 2) and against β1i, β2i, β1c, and β2c (Supplementary Table 1) were determined following reported methods[8].

PBMCs = experiment: Viability of total PBMCs in ASC differentiation culture (7-AAD); format: cell-based
Procedure: (§1) The immunoproteasome plays important roles in T cell differentiation and proliferation and dendritic cell activation and maturation[14],[20],[24]. However, its role in B cell differentiation is not well understood. […] Differentiated ASCs were then exposed to PKS21221 at indicated concentrations and cell survival was determined with Annexin V and 7-aminoactinomycin D (7-AAD) at three-time points (12-h, 24-h, and 48-h after treatment). […] In addition, the cytotoxicity of PKS21221 to different cell populations in PBMC was examined and compared to the cytotoxicity of bortezomib. PBMCs were incubated with PKS21221 or bortezomib, and the viability was assessed in T cells (CD3^+), B cells (CD19^+), monocytes (CD14^+) and dendritic cells (CD3^−CD19^−CD14^−CD16^−CD11c^+HLA-DR^+), respectively (Supplementary Fig. 13b–e).
(§2) PBMCs were cultured with or without IL-2/R848 for 5 days, followed by 12-h incubation with PKS21221 at different concentrations. a Representative flow cytometry plots of cells treated with IL-2 and R848 in the presence and absence of PKS21221. […] Annexin V^+7-AAD^− cells were referred as “Early apoptosis” population, and Annexin V^+7-AAD^+ cells were referred as “Dead” population. d Percentage of early apoptotic ASCs (left) and dead ASCs (right), after 12-h incubation with PKS21221. […]

CD19+CD38+CD27+ ASCs = experiment: Survival and apoptosis of differentiated antibody-secreting cells (ASCs) from PBMC, Annexin V/7-AAD; format: cell-based, human
Procedure: as §1
PBMCs were cultured with or without IL-2/R848 for 5 days, followed by 12-h incubation with PKS21221 at different concentrations. a Representative flow cytometry plots of cells treated with IL-2 and R848 in the presence and absence of PKS21221. […] Annexin V^+7-AAD^− cells were referred as “Early apoptosis” population, and Annexin V^+7-AAD^+ cells were referred as “Dead” population. d Percentage of early apoptotic ASCs (left) and dead ASCs (right), after 12-h incubation with PKS21221.
Human peripheral blood samples were obtained from five different healthy volunteers (BWH Specimen Bank). Peripheral blood mononuclear cells (PBMCs) were isolated by density gradient centrifugation using Lymphoprep (StemCell Technologies). PBMCs were cultured at 1.5 × 10^6 cells per mL in RPMI 1640 media (Lonza), supplemented with 10% human serum (GemCell) (10% HS-RPMI), recombinant human IL-2 10 ng per mL (or 100 U per ml, BioLegend) and R848 1 µg per mL (Cayman Chemicals) for 5 days, at 37 °C, 5% CO2. PKS21221 in DMSO, or DMSO only for control, was added to the culture media on day 5, and cells were incubated for additional 12, 24, and 48 h.

CD19+ non-ASCs = experiment: Apoptosis and viability of CD19+ non-ASCs in ASC differentiation culture; format: cell-based
Procedure: as §1, §2

β1c = β1c (Homo sapiens, UniProt P28072); experiment: IC50 against β1c of human constitutive proteasome (Z-LLE-AMC); details: read-out: IC50 1c - LLE (β1c); substrate Z-LLE-AMC
Procedure: as §3

β5c in HepG2 cells = target: T1, β5c in HepG2 cells (Homo sapiens, UniProt P20618+P28074); experiment: Intracellular β5c activity in HepG2 cells, suc-LLVY-luciferin; format: cell-based
T1 construct: host or cells: HepG2
Procedure: To determine if this class of inhibitors is cell penetrable, we treated the B-cell lymphoma line Karpas 1106P[28] (expressing a high proportion of i-20S over c-20S) with PKS21221 before incubation with either (Ac-ANW)2-R110 (a specific substrate of β5i) or suc-LLVY-luciferin (a substrate of β5) (Fig. 4a). […] No β5i activity was detected in HepG2 cells using (Ac-ANW)2-R110 as a substrate.
Cell viability was determined by CellTiter-glo.
Intracellular proteasomal activity and inhibition assay were performed as reported. Karpas 1106P (80,000 cells per well) were plated and incubated with compound at indicated concentrations for 1 h at 37 °C. The activity of the overall β5 activity including β5i and β5c in each was measured in situ after compound removal with Proteasome-Glo assay kit according to manufacturer’s instructions. Luminescence was recorded on a SpectraMax M5 plate reader. Relative percentage of RLU was used to calculate the IC50s.

β5i (i-20S) = target: T2, β5i (i-20S) (Homo sapiens, UniProt P20618+P28062); experiment: Kinetics studies of modality of inhibition against β5i; format: biochemical
T2 construct: purchased Boston Biochem
Procedure: Data as in d are shown in double reciprocal plots in e, and data from f in g. […] Data are means ± SEM of three independent experiments […]
With increasing concentrations of PKS21004, both V max and K M decreased (Fig. 1d–g and Supplementary Fig. 1). […] This class thus joins a growing list of noncompetitive proteasome inhibitors[5],[30].
Supplementary Figure 11. Inhibition kinetics of PKS21221 against i-20S β5i. (A) Steady state velocities of the Ac-ANW-AMC hydrolysis at 10, 15, 25, 35 µM by i-20S β5i (0.4 nM) in the presence of PKS21221 at indicated concentrations were determined at 37 °C and plotted by RFU versus substrate concentration (A); values of KM, Ki and α were estimated by PRISM using equation V = (Vmax / (1 + I / (α*Ki))) * S / (KM * (1+ I / Ki) / (1 + I / (α*Ki)) + S); (B) Lineweaver-Burk plot of the data in (A). (C) Plot of KM versus concentrations of PKS21221 indicates a mixed type inhibition. (D) Plot of Vmax versus concentrations of PKS21221.
(1 picture or pasted object on this page, not shown here)

human β5c = human β5c (Homo sapiens, UniProt P20618+P28074); experiment: IC50 determination against human β5c of c-20S
Procedure: as §3

CD19− cells = experiment: Apoptosis and viability of CD19− cells in ASC differentiation culture; format: cell-based
Procedure: as §1, §2

β1i = β1i (Homo sapiens, UniProt P28065); experiment: IC50 against β1i of human immunoproteasome (Ac-PAL-AMC); details: read-out: IC50 1i - PAL (β1i); substrate Ac-PAL-AMC
Procedure: as §3

`Cc1ccc(S(=O)(=O)N[C@@H](CC(=O)NC(C)(C)C)C(=O)NCCNC(=O)c2cc(-c3ccccc3F)ccc2F)cc1` [PKS21221] was tested, and the IC50 (β2c) was greater than 50000 nM, the “overall viability of PBMCs” value (PBMCs) was “not affected; also recorded: did not affect overall viability” and the “percentage of viable ASC” value (CD19+CD38+CD27+ ASCs; 12-h, 24-h, 48-h after treatment) was “decreased with PKS21221 treatment in a dose- and time-dependent manner”. For the same compound, the “ASC percentage in ASC differentiating culture” value (CD19+CD38+CD27+ ASCs; added for 12 hours on Day 5) was “decreased the percentage of”, the “apoptosis of CD19+ non-ASCs” value (CD19+ non-ASCs) was “slightly enhanced” and the “viability of CD19+ non-ASCs” value (CD19+ non-ASCs) was “did not affect viability”. The IC50 (β1c) was greater than 50000 nM, the IC50 (β5c in HepG2 cells) was 1830 ± 138 nM and the “α for β5i (αi-20S)” value (β5i (i-20S)) was 0.26. For the same compound, the “modality of inhibition of β5i” value (β5i (i-20S); versus substrate) was “noncompetitive”, the “Hill coefficient constant, inhibition of β5c” value (human β5c) was ~ 1 and the IC50 (human β5c; read-out: IC50 against β5c) was 110 nM. For the same compound, the “apoptosis of CD19− cells” value (CD19− cells) was “no increase”, the “viability of CD19− cells” value (CD19− cells) was “did not affect viability” and the IC50 (β1i) was greater than 50000 nM.

— paper PMC5700161, “Structure of human immunoproteasome with a reversible and noncompetitive inhibitor that selectively inhibits activated lymphocytes” (Nature Communications, 2017)
